In brackets after ≈: the same amount, converted by molar mass.
Legend:
Type in all cases: functional
Pseudomonas aeruginosa [1] = assay: Antimicrobial activity against Pseudomonas aeruginosa isolate M136074 expressing IMP-22 beta lactamase gene by Etest
Pseudomonas aeruginosa [2] = assay: Antimicrobial activity against Pseudomonas aeruginosa isolate 26285 expressing IMP-13 beta lactamase gene by Etest
Pseudomonas aeruginosa [3] = assay: Antimicrobial activity against Pseudomonas aeruginosa isolate 22843 expressing VIM-2 beta lactamase gene by Etest
Pseudomonas aeruginosa [4] = assay: Antimicrobial activity against Pseudomonas aeruginosa isolate 27135 expressing VIM-2 beta lactamase gene by Etest
Pseudomonas aeruginosa [5] = assay: Antimicrobial activity against Pseudomonas aeruginosa isolate M136074 expressing IMP-22 beta lactamase gene by Etest in presence of Tazobactam
Pseudomonas aeruginosa [6] = assay: Antimicrobial activity against Pseudomonas aeruginosa isolate 26285 expressing IMP-13 beta lactamase gene by Etest in presence of Tazobactam
Pseudomonas aeruginosa [7] = assay: Antimicrobial activity against Pseudomonas aeruginosa isolate 22843 expressing VIM-2 beta lactamase gene by Etest in presence of Tazobactam
Pseudomonas aeruginosa [8] = assay: Antimicrobial activity against Pseudomonas aeruginosa isolate 27135 expressing VIM-2 beta lactamase gene by Etest in presence of Tazobactam
Pseudomonas aeruginosa [9] = assay: Antimicrobial activity against Pseudomonas aeruginosa isolate M136074 expressing IMP-22 beta lactamase gene by Etest in presence of clavulanate
Pseudomonas aeruginosa [10] = assay: Antimicrobial activity against Pseudomonas aeruginosa isolate 26285 expressing IMP-13 beta lactamase gene by Etest in presence of clavulanate
Pseudomonas aeruginosa [11] = assay: Antimicrobial activity against Pseudomonas aeruginosa isolate 22843 expressing VIM-2 beta lactamase gene by Etest in presence of clavulanate
Pseudomonas aeruginosa [12] = assay: Antimicrobial activity against Pseudomonas aeruginosa isolate 27135 expressing VIM-2 beta lactamase gene by Etest in presence of clavulanate

Row | Compound | MIC (Pseudomonas aeruginosa [1]) | MIC (Pseudomonas aeruginosa [2]) | MIC (Pseudomonas aeruginosa [3]) | MIC (Pseudomonas aeruginosa [4]) | MIC (Pseudomonas aeruginosa [5]) | MIC (Pseudomonas aeruginosa [6]) | MIC (Pseudomonas aeruginosa [7]) | MIC (Pseudomonas aeruginosa [8]) | MIC (Pseudomonas aeruginosa [9]) | MIC (Pseudomonas aeruginosa [10]) | MIC (Pseudomonas aeruginosa [11]) | MIC (Pseudomonas aeruginosa [12])
1 | C[C@@H](O)[C@H]1C(=O)N2C(C(=O)O)=C(S[C@@H]3CN[C@H](C(=O)N(C)C)C3)[C@H](C)[C@H]12 [MEROPENEM] | 24 µg/mL (≈ 62.6 µM) | > 32 µg/mL | > 32 µg/mL | > 32 µg/mL |  |  |  |  |  |  |  | 
2 | COLISTIN | 6 µg/mL | 6 µg/mL | 4 µg/mL | 4 µg/mL |  |  |  |  |  |  |  | 
3 | NC[C@H]1O[C@H](O[C@H]2[C@H](O)[C@@H](O[C@H]3O[C@H](CO)[C@@H](O)[C@H](N)[C@H]3O)[C@H](N)C[C@@H]2N)[C@H](N)C[C@@H]1O [TOBRAMYCIN] | 2 µg/mL (≈ 4.28 µM) | 128 µg/mL (≈ 274 µM) | > 256 µg/mL | > 256 µg/mL |  |  |  |  |  |  |  | 
4 | CC(C)(O/N=C(\C(=O)N[C@@H]1C(=O)N2C(C(=O)[O-])=C(C[n+]3ccccc3)CS[C@H]12)c1csc(N)n1)C(=O)O [CEFTAZIDIME] | > 256 µg/mL | > 256 µg/mL | 12 µg/mL (≈ 22 µM) | 12 µg/mL (≈ 22 µM) |  |  |  |  |  |  |  | 
5 | GENTAMICIN | 4 µg/mL | > 256 µg/mL | 8 µg/mL | 8 µg/mL |  |  |  |  |  |  |  | 
6 | CO/N=C(\C(=O)N[C@@H]1C(=O)N2C(C(=O)O)=C(COC(C)=O)CS[C@H]12)c1csc(N)n1 [CEFOTAXIME] | > 256 µg/mL | > 256 µg/mL | > 256 µg/mL | > 256 µg/mL |  |  |  |  |  |  |  | 
7 | O=C(O)c1cn(C2CC2)c2cc(N3CCNCC3)c(F)cc2c1=O [CIPROFLOXACIN] | 32 µg/mL (≈ 96.6 µM) | > 32 µg/mL | > 32 µg/mL | > 32 µg/mL |  |  |  |  |  |  |  | 
8 | C[C@@H](O)[C@H]1C(=O)N2C(C(=O)O)=C(SCCNC=N)C[C@H]12 [IMIPENEM ANHYDROUS] | 12 µg/mL (≈ 40.1 µM) | > 32 µg/mL | > 32 µg/mL | > 32 µg/mL |  |  |  |  |  |  |  | 
9 | CCN1CCN(C(=O)N[C@@H](C(=O)N[C@@H]2C(=O)N3[C@@H]2SC(C)(C)[C@@H]3C(=O)O)c2ccccc2)C(=O)C1=O [PIPERACILLIN] | 12 µg/mL (≈ 23.2 µM) | 16 µg/mL (≈ 30.9 µM) | 32 µg/mL (≈ 61.8 µM) | 32 µg/mL (≈ 61.8 µM) | 8 µg/mL | 16 µg/mL | 32 µg/mL | 32 µg/mL |  |  |  | 
10 | C[C@H]1[C@H](NC(=O)/C(=N\OC(C)(C)C(=O)O)c2csc(N)n2)C(=O)N1S(=O)(=O)O [AZTREONAM] | 4 µg/mL (≈ 9.19 µM) | 12 µg/mL (≈ 27.6 µM) | 12 µg/mL (≈ 27.6 µM) | 12 µg/mL (≈ 27.6 µM) |  |  |  |  |  |  |  | 
11 | CC1(C)S[C@@H]2[C@H](NC(=O)[C@H](C(=O)O)c3ccsc3)C(=O)N2[C@H]1C(=O)O [TICARCILLIN] | > 256 µg/mL | > 256 µg/mL | > 256 µg/mL | > 256 µg/mL |  |  |  |  | > 256 µg/mL | > 256 µg/mL | > 256 µg/mL | > 256 µg/mL
12 | CO/N=C(\C(=O)N[C@@H]1C(=O)N2C(C(=O)[O-])=C(C[N+]3(C)CCCC3)CS[C@H]12)c1csc(N)n1 [CEFEPIME] | 128 µg/mL (≈ 266 µM) | 128 µg/mL (≈ 266 µM) |  | 24 µg/mL (≈ 49.9 µM) |  |  |  |  |  |  |  | 
13 | NCC[C@H](O)C(=O)N[C@@H]1C[C@H](N)[C@@H](O[C@H]2O[C@H](CN)[C@@H](O)[C@H](O)[C@H]2O)[C@H](O)[C@H]1O[C@H]1O[C@H](CO)[C@@H](O)[C@H](N)[C@H]1O [AMIKACIN] | 6 µg/mL (≈ 10.2 µM) | 24 µg/mL (≈ 41 µM) | > 256 µg/mL | > 256 µg/mL |  |  |  |  |  |  |  | 

From ChEMBL document CHEMBL1649164, “First organisms with acquired metallo-beta-lactamases (IMP-13, IMP-22, and VIM-2) reported in Austria” (2009)
